According to US6964949B2, “Pharmaceutical compositions for promoting the growth of gram-positive bacilli and increasing the acidity in the vagina and the use thereof” (Shanghai Jiao Da Onlly Co., Ltd., priority 2000, dated 2005):

Assays:
Assay in all cases: Experimental Example 1: bacterial vaginosis specimen suspension cultured in the composition, Gram smear
Assay type in all cases: cell-based
Conditions in all cases: 10.0% sucrose, 1.0% yeast extract, 1.6% xanthan gum, pH 5.0, anaerobic, 37° C.
Gram-negative bacilli = test system: Gram-negative bacilli
Method: (§1) • (1) The preparation of the composition: Sucrose was used to prepare the following composition according to the method mentioned above: sucrose 10.0% (W/V), yeast extract 1.0% (W/V), Xanthan gum 1.6% (W/V), pH 5.0; then filled the composition into the tubes after sterilization, with each tube containing 5 ml, and pre-reduced for use. • (2) Specimen suspension: Vaginal secretion was taken from one of the patients suffering from typical bacterial vaginosis with a cotton swab, then the swab was washed in 2 ml sterilized Trypcase-soy Broth immediately, and thus the specimen suspension was ready. […] The tubes were placed in an incubator for cultivation, at 37° C., anaerobically. Then, culture samples were taken from the tubes at 10 hours and 24 hours later respectively. The Gram smears of the samples were observed and the pH values of the samples were measured.

Gram-negative cocci = test system: Gram-negative cocci
Method: as §1

Gram-positive bacilli = test system: Gram-positive bacilli
Method: as §1

Gram-positive cocci = test system: Gram-positive cocci
Method: as §1

OC[C@H]1O[C@@](CO)(O[C@H]2O[C@H](CO)[C@@H](O)[C@H](O)[C@H]2O)[C@@H](O)[C@@H]1O [Sucrose, sucrose]
Bacteria G − b (Gram-negative bacilli), 10 hours-culture (Gram-negative bacilli; 10 hours): G − b, ++ (About 10-99 bacteria per field of vision under oil-immersion lens)
Bacteria G − b (Gram-negative bacilli), 24 hours-culture (Gram-negative bacilli; 24 hours): G − b, ++ (About 10-99 bacteria per field of vision under oil-immersion lens)
Bacteria G − c (Gram-negative cocci), 24 hours-culture (Gram-negative cocci): G − c, + (1-9 bacteria per field of vision under oil-immersion lens)
Bacteria G + b (Gram-positive bacilli), 10 hours-culture (Gram-positive bacilli; 10 hours): G + b, +++ (About 100 bacteria or more per field vision under oil-immersion lens, even uncountable)
Bacteria G + b (Gram-positive bacilli), 24 hours-culture (Gram-positive bacilli; 24 hours): G + b, ++++
Bacteria G + c (Gram-positive cocci), 24 hours-culture (Gram-positive cocci): G + C, ++ (About 10-99 bacteria per field of vision under oil-immersion lens)
